Experimental data as given in patent US10822325B2, “Human GLUT5 specific inhibitors and methods of treatment” (UNM RAINFOREST INNOVATIONS, priority 2015, dated 2020).
Positions count from the first letter of the chain named. Entries after “also recorded” stand apart in the source; their conditions may differ.

Experiments:
[1] = target: T1, human GLUT1 (Homo sapiens, UniProt P11166); test: Glucose entrance counter-flow transport in GLUT1 proteoliposomes; format: biochemical; settings: 2 mM compound, one minute
T1 construct: Full length DNA was subcloned into pFastBac1 (Life Technologies) vector with a N-terminal hexahistidine tag; hexahistidine (N); made in house; host or cells: Sf21 insect cells (baculovirus, pFastBac1)
T1 sequence (P11166 1-492): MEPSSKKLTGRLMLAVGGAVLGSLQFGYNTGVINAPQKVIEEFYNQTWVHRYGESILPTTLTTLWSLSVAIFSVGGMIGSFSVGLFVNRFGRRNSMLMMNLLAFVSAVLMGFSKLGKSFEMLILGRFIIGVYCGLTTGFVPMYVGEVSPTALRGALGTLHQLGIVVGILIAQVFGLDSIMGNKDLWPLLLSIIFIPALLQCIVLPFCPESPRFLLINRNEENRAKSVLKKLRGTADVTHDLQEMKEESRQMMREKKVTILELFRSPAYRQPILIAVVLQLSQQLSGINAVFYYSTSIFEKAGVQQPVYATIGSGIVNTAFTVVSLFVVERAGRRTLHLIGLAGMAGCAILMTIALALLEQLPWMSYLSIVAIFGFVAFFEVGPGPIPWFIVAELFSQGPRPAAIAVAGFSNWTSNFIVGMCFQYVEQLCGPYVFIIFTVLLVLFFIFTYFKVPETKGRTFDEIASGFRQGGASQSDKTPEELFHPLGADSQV
Protocol: (§1) cDNAs of GLUT1, 3, 4 and 5 were purchased from Open Biosystems (GE Healthcare). cDNAs of GLUT2 was a gift from Prof. Graeme Bell at University of Chicago. Full length DNA was subcloned into pFastBac1 (Life Technologies) vector with a N-terminal hexahistidine tag. Bacmids were generated in DH10Bac E. coli cells (Life Technologies). Baculoviruses were produced using Cellfectin II Reagent and amplified in Sf21 insect cells (Life Technologies). Cells were maintained at 26° C., and P1 (10^6 pfu/mL) was collected from infected cells after 72 hours. SF21 cells were propagated in HyClone SFX-Insect media (GE Healthcare), supplemented with 5% fetal bovine serum (Biowest), 4.8 mM glutamine, antibiotics (100 units/mL Penicillin G and 100 μg/mL streptomycin sulfate) and amphotericin B (2.5 μg/mL). […]
(§2) For the entrance counterflow transport in proteoliposomes, the assay was started by the addition of 5 μL proteoliposomes solution (OD600 nm ˜30) to 200 μL, assay solution, containing 10 μM ^14C-radiolabeled glucose (for GLUT1 wild-type or F379H mutant and GLUT2-4) or fructose (for GLUT5 wild-type or H387F mutant and GLUT2) (Moravek Biochemicals) in 100 mM KPi buffer at pH 7.5. After one minute (or different specified time points when the time-dependent counter-flow transport activity was measured), the transport was stopped with ice-chilled quench buffer [0.1 M KPi (pH 5.5) and 0.1 M lithium chloride].

[2] = target: T2, GLUT1F379H (Homo sapiens, UniProt P11166, F379H); test: Glucose entrance counter-flow transport in GLUT1F379H mutant proteoliposomes; format: biochemical; settings: 2 mM compound
T2 construct: Full length DNA was subcloned into pFastBac1 (Life Technologies) vector with a N-terminal hexahistidine tag; hexahistidine (N); made in house; host or cells: Sf21 insect cells (baculovirus, pFastBac1)
T2 sequence (P11166 1-492 F379H): T1 sequence (P11166 1-492) with F379H
Protocol: as §1, §2

Compound | effect on GLUT1 glucose transport [1] | effect on GLUT1F379H glucose transport [2]
O=C(CCc1ccc(O)cc1)c1c(O)cc(O)cc1O [phloretin, reference compound] | inhibited | no longer inhibited; also recorded: ceased to inhibit
CS(=O)(=O)c1ccc(Nc2ccc3c(c2)OCO3)c([N+](=O)[O-])c1 [MSNBA, N-[4-(methylsulfonyl)-2-nitrophenyl]-1,3-benzodioxol-5-amine] | did not affect; also recorded: did not influence | remained insensitive; also recorded: remained unaffected
